Results taken from article PMC7854658, “Structural basis for ligand recognition of the neuropeptide Y Y2 receptor” (Nature Communications, 2021).
Residue numbers refer to the chain shown, from its start. Several values for one entry are separate records, joined by “and”; a condition that tells them apart may be missing. Equal values may be shown once.

How the values were obtained:
Experiment in all cases: NPY-induced IP accumulation (IP-One), mutant
Type in all cases: cell-based
Y2R mutant V134^3.36A = target: T1, Y2R mutant V134^3.36A (Homo sapiens, UniProt P49146, V134A)
T1 construct: expressed in transfected cells; host or cells: HEK293
T1 sequence (P49146 1-381 V134A): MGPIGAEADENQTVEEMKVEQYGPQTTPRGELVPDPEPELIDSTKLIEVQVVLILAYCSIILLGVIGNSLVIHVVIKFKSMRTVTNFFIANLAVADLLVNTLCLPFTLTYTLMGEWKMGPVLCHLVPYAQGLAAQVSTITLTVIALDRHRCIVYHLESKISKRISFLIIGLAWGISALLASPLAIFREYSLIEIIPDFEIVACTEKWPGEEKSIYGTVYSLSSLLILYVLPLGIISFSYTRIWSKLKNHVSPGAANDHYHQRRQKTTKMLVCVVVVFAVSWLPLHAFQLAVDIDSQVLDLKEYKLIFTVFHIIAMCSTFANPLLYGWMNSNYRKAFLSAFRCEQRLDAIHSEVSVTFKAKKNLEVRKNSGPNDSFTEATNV
Description: (§1) The plasmid hY2R_eYFP_pVitro2 encoding the WT Y2R and a fluorophore for investigating the receptor localization was used as template for the generation of receptor point mutations as previously described. Mutagenesis PCR was performed using the Phusion High-Fidelity Polymerase (Thermo Fisher Scientific, Waltham, MA, USA). […] The preparations of the plasmid DNA were performed using the Wizard plus Mini or Midi DNA purification kit (Promega, Madison, WI, USA).
(§2) To determine the contribution of residues to antagonist binding, IP-One accumulation assays (Cisbio, Codolet, France) were performed. HEK293 cells were seeded into six-well plates and transiently cotransfected with 3200 ng of receptor plasmid DNA and 800 ng of the chimeric G protein (Gα∆6qi4myr) to redirect the Gαi signaling pathway to the Gαq phospholipase C pathway. Transient transfection was carried out using Metafectene as transfection reagent according to the manufacturer’s protocol (Biontex, Munich, Germany) over night. The cells were then reseeded into white 384-well microplates (Greiner Bio-One, Kremsmünster, Austria) at a density of 15,000 cells per well and grown for additional 24 h.
(§3) All dilutions were performed in HBSS containing 20 mM LiCl (stimulation buffer) and DMSO with a final concentration of 0.01%.
(§4) To determine the amount of cellular IPs, the FRET acceptor (IP1-d2) and the FRET donor (anti-IP1-Cryptate) were reconstituted and diluted in lysis and detection buffer (1:20) as described in the manufacturer’s protocol. Three microliters of both solutions were added, and the cells were incubated on a tumbler for 60 min.

Y2R mutant W116^ECL1A = target: T2, Y2R mutant W116^ECL1A (Homo sapiens, UniProt P49146, W116A); conditions: 1 μM antagonist, source data Fig. 3
T2 construct: expressed in transfected cells; host or cells: HEK293
T2 sequence (P49146 whole entry W116A): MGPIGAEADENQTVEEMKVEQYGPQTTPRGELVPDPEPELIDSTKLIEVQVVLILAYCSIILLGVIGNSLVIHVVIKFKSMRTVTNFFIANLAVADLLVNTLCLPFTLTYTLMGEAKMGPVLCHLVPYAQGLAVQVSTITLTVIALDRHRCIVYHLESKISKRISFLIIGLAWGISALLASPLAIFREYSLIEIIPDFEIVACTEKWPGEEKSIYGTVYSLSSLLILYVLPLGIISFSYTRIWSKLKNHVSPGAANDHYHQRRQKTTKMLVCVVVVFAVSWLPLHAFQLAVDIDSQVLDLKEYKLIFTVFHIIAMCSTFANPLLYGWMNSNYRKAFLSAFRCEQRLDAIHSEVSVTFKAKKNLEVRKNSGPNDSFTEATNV
Description: as §1, §2, §3, §4

Y2R mutant V126^3.28A = target: T3, Y2R mutant V126^3.28A (Homo sapiens, UniProt P49146, V126A)
T3 construct: expressed in transfected cells; host or cells: HEK293
T3 sequence (P49146 1-381 V126A): T1 sequence (P49146 1-381 V134A) with V126A, A134V
Description: as §1, §2, §3, §4

Y2R mutant Y110^2.64A = target: T4, Y2R mutant Y110^2.64A (Homo sapiens, UniProt P49146, Y110A); conditions: 1 μM antagonist, source data Fig. 3
T4 construct: expressed in transfected cells; host or cells: HEK293
T4 sequence (P49146 whole entry Y110A): as the sequence (P49146 whole entry W116A) above, with Y110A, A116W counted along it
Description: as §1, §2, §3, §4

Y2R mutant F307^7.35E = target: T5, Y2R mutant F307^7.35E (Homo sapiens, UniProt P49146, F307E); conditions: 1 μM antagonist, source data Fig. 3
T5 construct: expressed in transfected cells; host or cells: HEK293
T5 sequence (P49146 whole entry F307E): as the sequence (P49146 whole entry W116A) above, with A116W, F307E counted along it
Description: as §1, §2, §3, §4

Y2R mutant S223^5.42A = target: T6, Y2R mutant S223^5.42A (Homo sapiens, UniProt P49146, S223A); conditions: 1 μM antagonist, source data Fig. 3
T6 construct: expressed in transfected cells; host or cells: HEK293
T6 sequence (P49146 whole entry S223A): as the sequence (P49146 whole entry W116A) above, with A116W, S223A counted along it
Description: as §1, §2, §3, §4

Y2R mutant Q288^6.55A = target: T7, Y2R mutant Q288^6.55A (Homo sapiens, UniProt P49146, Q288A)
T7 construct: expressed in transfected cells; host or cells: HEK293
T7 sequence (P49146 1-381 Q288A): T1 sequence (P49146 1-381 V134A) with A134V, Q288A
Description: as §1, §2, §3, §4

Y2R mutant F307^7.35A = target: T8, Y2R mutant F307^7.35A (Homo sapiens, UniProt P49146, F307A)
T8 construct: expressed in transfected cells; host or cells: HEK293
T8 sequence (P49146 1-381 F307A): T1 sequence (P49146 1-381 V134A) with A134V, F307A
Description: as §1, §2, §3, §4

[1] = 1 μM antagonist, source data Fig. 3
[2] = EC50(NPY + 1 μM antagonist)/EC50(NPY)
[3] = EC50 ratio (WT)/EC50 ratio (mutant)

N=C(N)NCCC[C@H](NC(=O)CC1(CC(=O)N2CCN(C3c4ccccc4NC(=O)c4ccccc43)CC2)CCCC1)C(=O)NCCn1c(=O)n(-c2ccccc2)n(-c2ccccc2)c1=O (stereo partly drawn) [BIIE0246]
Average EC50 ratio (Y2R mutant V134^3.36A; [1]): 81.8 | EC50 ratio (individual experiments) (Y2R mutant V134^3.36A; [1]): 76.2 and 87.4 | EC50 ratio (Y2R mutant V134^3.36A; [2]): 76 and 87 | Ratio change (fold) (Y2R mutant V134^3.36A; [3]): 2 fold and 1.8 fold | Average EC50 ratio (Y2R mutant W116^ECL1A): 38.2 | EC50 ratio (individual experiments) (Y2R mutant W116^ECL1A): 21.7 and 54.7 | Average EC50 ratio (Y2R mutant V126^3.28A; [1]): 302.6 | EC50 ratio (individual experiments) (Y2R mutant V126^3.28A; [1]): 285.2 and 320.0 | EC50 ratio (Y2R mutant V126^3.28A; [2]): 285 and 320 | Ratio change (fold) (Y2R mutant V126^3.28A; [3]): 0.6 fold and 0.5 fold | Average EC50 ratio (Y2R mutant Y110^2.64A): 47.6 | EC50 ratio (individual experiments) (Y2R mutant Y110^2.64A): 25.1 and 70.1 | Average EC50 ratio (Y2R mutant F307^7.35E): 232.3 | EC50 ratio (individual experiments) (Y2R mutant F307^7.35E): 75.3 and 389.3 | Average EC50 ratio (Y2R mutant S223^5.42A): 168.7 | EC50 ratio (individual experiments) (Y2R mutant S223^5.42A): 275.8 and 61.6 | Average EC50 ratio (Y2R mutant Q288^6.55A; [1]): 143.2 | EC50 ratio (individual experiments) (Y2R mutant Q288^6.55A; [1]): 101.5 and 185.0 | EC50 ratio (Y2R mutant Q288^6.55A; [2]): 102 and 185 | Ratio change (fold) (Y2R mutant Q288^6.55A; [3]): 1.6 fold and 0.9 fold | Average EC50 ratio (Y2R mutant F307^7.35A; [1]): 89.4 | EC50 ratio (individual experiments) (Y2R mutant F307^7.35A; [1]): 68.0 and 110.9 | EC50 ratio (Y2R mutant F307^7.35A; [2]): 68 and 111 | Ratio change (fold) (Y2R mutant F307^7.35A; [3]): 2 fold and 1.4 fold
